According to ChEMBL document CHEMBL1152560, “Substituted 2-arylbenzothiazoles as kinase inhibitors: hit-to-lead optimization” (Bioorg Med Chem, 2009):

What was measured:
[1] = target: Vascular endothelial growth factor receptor 1 (Homo sapiens) (UniProt P17948); assay: Residual activity of VEGFR1 at 0.1 uM by microplate scintillation counting
[2] = target: Serine/threonine-protein kinase pim-2 (Homo sapiens) (UniProt Q9P1W9); assay: Residual activity of PIM2 at 10 uM by microplate scintillation counting
[3] = target: T1, Tyrosine-protein kinase JAK3 (Homo sapiens) (UniProt P52333); assay: Residual activity of JAK3 at 10 uM by microplate scintillation counting
T1 sequence (whole entry): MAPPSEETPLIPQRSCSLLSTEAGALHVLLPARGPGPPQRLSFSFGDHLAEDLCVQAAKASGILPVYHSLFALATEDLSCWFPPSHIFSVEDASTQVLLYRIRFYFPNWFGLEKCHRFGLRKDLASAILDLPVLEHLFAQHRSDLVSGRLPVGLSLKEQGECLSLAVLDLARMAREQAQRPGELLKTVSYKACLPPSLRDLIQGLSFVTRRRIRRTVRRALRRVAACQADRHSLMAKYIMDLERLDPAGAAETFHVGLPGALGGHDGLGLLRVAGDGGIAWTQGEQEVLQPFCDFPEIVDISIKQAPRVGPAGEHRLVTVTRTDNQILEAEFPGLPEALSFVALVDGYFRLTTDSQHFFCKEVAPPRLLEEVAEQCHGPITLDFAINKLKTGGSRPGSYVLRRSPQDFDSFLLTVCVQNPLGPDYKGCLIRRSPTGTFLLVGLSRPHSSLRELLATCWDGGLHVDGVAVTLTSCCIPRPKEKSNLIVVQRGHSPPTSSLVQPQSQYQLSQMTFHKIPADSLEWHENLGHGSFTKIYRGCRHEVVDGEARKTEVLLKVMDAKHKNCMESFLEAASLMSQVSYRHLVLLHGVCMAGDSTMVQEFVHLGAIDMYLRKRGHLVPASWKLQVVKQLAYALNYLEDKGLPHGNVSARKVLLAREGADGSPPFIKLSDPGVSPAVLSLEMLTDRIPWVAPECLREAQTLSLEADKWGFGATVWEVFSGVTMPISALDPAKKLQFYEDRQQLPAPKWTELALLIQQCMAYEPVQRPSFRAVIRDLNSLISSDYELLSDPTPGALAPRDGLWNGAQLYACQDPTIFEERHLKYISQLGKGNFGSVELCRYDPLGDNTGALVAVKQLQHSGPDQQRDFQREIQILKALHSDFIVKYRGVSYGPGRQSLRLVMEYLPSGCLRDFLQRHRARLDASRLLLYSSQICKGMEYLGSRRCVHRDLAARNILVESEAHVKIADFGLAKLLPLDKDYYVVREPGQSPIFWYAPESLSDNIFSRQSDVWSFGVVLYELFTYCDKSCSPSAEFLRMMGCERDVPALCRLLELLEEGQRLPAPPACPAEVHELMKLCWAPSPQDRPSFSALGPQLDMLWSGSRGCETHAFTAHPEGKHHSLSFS

[4] = target: T2, Serine/threonine-protein kinase Sgk2 (Homo sapiens) (UniProt Q9HBY8); assay: Residual activity of SGK2 at 0.1 uM by microplate scintillation counting
T2 sequence (whole entry): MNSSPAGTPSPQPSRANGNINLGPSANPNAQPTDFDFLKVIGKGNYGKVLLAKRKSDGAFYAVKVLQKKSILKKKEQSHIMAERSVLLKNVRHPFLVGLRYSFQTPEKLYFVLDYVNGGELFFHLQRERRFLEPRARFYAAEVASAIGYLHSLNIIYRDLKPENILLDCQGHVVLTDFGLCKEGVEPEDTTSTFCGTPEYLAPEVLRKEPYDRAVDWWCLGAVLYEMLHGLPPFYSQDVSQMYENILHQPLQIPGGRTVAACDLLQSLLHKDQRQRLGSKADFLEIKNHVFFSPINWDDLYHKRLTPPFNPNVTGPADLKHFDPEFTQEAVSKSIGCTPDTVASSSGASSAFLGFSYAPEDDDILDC

[5] = target: T3, Mitogen-activated protein kinase 12 (Homo sapiens) (UniProt P53778); assay: Residual activity of p38-gamma at 10 uM by microplate scintillation counting
T3 sequence (whole entry): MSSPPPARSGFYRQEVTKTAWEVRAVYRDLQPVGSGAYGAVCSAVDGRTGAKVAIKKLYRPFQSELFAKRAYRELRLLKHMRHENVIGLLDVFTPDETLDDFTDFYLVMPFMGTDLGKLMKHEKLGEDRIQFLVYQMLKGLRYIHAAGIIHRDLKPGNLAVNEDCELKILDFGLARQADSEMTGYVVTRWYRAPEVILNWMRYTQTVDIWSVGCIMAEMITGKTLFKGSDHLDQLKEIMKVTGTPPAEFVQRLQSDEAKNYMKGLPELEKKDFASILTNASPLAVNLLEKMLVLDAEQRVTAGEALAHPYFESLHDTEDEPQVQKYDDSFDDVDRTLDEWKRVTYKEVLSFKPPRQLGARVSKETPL

[6] = target: Wee1-like protein kinase (Homo sapiens) (UniProt P30291); assay: Residual activity of WEE1 at 10 uM by microplate scintillation counting
[7] = target: Casein kinase II subunit alpha (Homo sapiens) (UniProt P68400); assay: Residual activity of CK2alpha1 at 0.1 uM by microplate scintillation counting
[8] = target: Protein kinase C beta type (Homo sapiens) (UniProt P05771); assay: Residual activity of PKCbeta1 at 1 uM by microplate scintillation counting
[9] = target: T4, Serine/threonine-protein kinase Nek3 (Homo sapiens) (UniProt P51956); assay: Residual activity of NEK3 at 10 uM by microplate scintillation counting
T4 sequence (whole entry): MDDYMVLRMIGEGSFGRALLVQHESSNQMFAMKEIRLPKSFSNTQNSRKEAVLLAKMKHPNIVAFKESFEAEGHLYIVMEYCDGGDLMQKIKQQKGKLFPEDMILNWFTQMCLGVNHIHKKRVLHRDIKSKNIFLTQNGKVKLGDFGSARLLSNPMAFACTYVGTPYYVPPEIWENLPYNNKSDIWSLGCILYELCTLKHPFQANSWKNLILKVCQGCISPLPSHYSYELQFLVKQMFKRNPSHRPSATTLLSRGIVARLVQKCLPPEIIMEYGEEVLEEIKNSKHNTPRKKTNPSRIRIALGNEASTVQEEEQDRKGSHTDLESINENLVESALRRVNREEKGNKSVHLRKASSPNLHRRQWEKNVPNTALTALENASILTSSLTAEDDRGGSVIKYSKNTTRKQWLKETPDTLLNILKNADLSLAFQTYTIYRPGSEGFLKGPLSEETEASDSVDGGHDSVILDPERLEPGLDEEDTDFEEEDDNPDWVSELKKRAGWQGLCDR

[10] = target: Cyclin-dependent kinase 1/cyclin B1 (Homo sapiens) (UniProt P06493+P14635); assay: Residual activity of CDK1/CyclinB1 at 10 uM by microplate scintillation counting; type: protein-complex assay
[11] = target: Dual specificity mitogen-activated protein kinase kinase 1 (Homo sapiens) (UniProt Q02750); assay: Residual activity of wild type MEK1 at 0.1 uM by microplate scintillation counting
Sequence of Dual specificity mitogen-activated protein kinase kinase 1 (Homo sapiens) (Q02750 whole entry): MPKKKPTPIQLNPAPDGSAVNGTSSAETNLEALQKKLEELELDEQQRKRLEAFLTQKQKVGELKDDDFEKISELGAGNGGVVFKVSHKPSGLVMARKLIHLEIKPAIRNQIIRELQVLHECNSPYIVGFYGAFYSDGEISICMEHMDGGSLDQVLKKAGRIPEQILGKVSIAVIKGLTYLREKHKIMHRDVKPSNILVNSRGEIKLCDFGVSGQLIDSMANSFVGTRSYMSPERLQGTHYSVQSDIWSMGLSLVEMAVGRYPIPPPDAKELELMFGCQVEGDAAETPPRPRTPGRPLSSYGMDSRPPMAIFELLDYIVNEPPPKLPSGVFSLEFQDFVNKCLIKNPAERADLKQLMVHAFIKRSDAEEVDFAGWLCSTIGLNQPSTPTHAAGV

Sequence of Protein kinase C beta type (Homo sapiens) (P05771 2-671 limits assumed): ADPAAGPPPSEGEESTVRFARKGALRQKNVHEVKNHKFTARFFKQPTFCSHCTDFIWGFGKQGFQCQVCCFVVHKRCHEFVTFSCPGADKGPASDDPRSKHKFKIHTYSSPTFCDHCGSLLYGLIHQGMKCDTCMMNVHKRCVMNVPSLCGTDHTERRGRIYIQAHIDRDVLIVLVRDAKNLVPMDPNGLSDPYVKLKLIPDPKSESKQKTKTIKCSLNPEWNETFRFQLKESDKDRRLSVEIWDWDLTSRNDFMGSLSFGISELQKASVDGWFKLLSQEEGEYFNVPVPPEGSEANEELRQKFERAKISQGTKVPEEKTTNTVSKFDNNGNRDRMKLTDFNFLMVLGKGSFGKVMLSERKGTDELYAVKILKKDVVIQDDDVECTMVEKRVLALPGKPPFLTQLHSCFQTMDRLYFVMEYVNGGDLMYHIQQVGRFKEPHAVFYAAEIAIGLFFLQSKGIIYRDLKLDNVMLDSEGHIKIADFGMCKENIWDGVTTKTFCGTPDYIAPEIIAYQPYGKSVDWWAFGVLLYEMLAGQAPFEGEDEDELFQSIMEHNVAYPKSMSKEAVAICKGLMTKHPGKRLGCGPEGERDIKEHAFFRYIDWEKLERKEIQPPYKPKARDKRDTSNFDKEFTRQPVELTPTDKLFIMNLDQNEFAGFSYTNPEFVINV
Sequence of Wee1-like protein kinase (Homo sapiens) (P30291 whole entry, looked up): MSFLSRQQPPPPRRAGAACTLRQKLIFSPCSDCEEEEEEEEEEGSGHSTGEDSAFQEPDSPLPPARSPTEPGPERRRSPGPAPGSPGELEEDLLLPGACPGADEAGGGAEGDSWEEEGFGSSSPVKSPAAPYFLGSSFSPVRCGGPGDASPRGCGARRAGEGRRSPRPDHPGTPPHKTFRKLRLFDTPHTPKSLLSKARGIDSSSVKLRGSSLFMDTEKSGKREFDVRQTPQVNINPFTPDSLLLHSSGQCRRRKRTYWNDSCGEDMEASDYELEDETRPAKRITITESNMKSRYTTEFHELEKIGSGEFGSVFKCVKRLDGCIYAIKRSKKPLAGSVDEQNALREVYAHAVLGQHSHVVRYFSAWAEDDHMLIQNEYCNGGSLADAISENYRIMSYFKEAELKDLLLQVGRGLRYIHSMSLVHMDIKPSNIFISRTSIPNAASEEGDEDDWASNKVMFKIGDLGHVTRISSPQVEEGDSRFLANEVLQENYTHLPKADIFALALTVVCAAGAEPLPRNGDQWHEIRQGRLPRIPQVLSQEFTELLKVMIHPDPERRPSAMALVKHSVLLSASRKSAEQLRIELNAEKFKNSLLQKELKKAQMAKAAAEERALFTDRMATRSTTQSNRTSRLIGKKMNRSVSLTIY
Sequence of Vascular endothelial growth factor receptor 1 (Homo sapiens) (P17948 whole entry): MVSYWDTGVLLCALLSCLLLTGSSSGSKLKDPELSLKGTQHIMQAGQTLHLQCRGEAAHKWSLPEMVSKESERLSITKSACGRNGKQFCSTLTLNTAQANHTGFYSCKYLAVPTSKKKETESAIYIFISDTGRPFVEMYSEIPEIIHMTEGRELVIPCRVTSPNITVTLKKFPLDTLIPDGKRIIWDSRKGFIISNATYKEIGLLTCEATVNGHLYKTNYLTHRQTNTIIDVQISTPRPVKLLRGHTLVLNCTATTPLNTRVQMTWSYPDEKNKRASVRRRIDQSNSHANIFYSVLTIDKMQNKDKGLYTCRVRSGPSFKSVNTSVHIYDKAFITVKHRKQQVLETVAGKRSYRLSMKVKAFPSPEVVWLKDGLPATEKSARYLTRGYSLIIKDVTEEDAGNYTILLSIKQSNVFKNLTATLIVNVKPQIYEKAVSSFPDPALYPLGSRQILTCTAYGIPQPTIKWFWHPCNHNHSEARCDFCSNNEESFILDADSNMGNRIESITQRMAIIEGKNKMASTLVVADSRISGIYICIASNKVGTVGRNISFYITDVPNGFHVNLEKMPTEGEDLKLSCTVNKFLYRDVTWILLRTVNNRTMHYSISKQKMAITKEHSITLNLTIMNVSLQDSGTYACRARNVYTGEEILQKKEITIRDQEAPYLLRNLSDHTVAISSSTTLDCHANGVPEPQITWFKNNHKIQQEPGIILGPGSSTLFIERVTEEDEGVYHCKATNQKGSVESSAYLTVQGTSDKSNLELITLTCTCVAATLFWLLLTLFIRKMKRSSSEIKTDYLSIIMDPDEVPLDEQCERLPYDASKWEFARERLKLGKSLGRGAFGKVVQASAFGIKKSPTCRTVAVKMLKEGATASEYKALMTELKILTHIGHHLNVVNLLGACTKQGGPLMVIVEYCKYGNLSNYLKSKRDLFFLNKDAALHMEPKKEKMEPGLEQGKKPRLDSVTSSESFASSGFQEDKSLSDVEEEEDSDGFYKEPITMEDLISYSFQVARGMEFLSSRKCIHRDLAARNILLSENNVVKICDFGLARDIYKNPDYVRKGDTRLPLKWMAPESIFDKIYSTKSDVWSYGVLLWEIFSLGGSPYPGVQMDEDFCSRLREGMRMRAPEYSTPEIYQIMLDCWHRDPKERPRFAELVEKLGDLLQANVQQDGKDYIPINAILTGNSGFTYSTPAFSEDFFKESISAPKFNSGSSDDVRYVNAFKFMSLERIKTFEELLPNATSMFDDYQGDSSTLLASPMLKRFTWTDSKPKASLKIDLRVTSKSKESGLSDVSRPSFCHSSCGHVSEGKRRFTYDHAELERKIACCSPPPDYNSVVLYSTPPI
Sequence of Serine/threonine-protein kinase pim-2 (Homo sapiens) (Q9P1W9 whole entry, looked up): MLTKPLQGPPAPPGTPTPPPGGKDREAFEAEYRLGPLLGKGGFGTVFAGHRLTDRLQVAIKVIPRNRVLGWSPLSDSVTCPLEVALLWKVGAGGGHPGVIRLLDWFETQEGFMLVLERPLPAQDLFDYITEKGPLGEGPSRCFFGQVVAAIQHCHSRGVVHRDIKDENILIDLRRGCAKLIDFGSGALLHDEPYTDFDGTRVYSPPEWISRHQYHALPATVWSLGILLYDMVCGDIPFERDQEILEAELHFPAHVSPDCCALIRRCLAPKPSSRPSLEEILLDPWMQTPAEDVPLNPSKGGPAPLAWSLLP
Sequence of Cyclin-dependent kinase 1/cyclin B1 (Homo sapiens) (P06493 whole entry, looked up): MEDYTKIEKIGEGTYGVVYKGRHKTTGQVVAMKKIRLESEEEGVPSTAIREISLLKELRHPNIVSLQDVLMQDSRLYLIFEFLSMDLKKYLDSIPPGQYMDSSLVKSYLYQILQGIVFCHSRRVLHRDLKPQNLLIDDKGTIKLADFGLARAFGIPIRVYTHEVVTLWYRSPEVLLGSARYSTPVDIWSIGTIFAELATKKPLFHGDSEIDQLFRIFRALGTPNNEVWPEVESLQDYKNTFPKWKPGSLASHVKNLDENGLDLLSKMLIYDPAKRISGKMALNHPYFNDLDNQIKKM
Sequence of Cyclin-dependent kinase 1/cyclin B1 (Homo sapiens) (P14635 whole entry, looked up): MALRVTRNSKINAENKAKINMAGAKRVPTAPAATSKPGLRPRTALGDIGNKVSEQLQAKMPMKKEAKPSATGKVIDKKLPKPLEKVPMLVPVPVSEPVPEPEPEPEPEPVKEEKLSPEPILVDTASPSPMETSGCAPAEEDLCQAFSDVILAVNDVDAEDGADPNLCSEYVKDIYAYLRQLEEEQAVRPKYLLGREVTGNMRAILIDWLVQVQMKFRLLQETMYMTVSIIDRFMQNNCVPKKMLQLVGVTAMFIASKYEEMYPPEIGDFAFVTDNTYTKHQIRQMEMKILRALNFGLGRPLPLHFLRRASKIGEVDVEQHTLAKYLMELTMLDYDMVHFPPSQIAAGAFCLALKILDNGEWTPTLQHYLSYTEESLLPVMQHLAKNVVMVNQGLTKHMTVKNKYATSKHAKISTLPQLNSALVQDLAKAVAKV
Sequence of Casein kinase II subunit alpha (Homo sapiens) (P68400 whole entry, looked up): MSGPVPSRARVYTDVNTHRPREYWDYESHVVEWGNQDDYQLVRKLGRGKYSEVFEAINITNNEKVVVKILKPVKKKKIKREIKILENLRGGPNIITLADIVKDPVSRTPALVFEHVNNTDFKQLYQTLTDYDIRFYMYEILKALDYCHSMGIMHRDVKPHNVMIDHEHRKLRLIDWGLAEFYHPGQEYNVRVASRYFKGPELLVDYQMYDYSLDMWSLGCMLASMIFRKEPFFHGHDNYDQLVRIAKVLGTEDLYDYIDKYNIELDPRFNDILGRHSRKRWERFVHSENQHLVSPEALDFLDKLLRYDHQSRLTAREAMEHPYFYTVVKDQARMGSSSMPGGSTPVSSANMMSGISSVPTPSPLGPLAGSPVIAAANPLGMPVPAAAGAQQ

| SMILES | residual activity [1] | residual activity [2] | residual activity [3] | residual activity [4] | residual activity [5] | residual activity [6] | residual activity [7] | residual activity [8] | residual activity [9] | residual activity [10] | residual activity [11] |
| --- | --- | --- | --- | --- | --- | --- | --- | --- | --- | --- | --- |
| COc1cc2c(Oc3ccc(-c4nc5ccccc5s4)cc3)ncnc2cc1OCCCN1CCN(C)CC1 | 93% | 73% | 63% | 93% | 136% | 2% | 95% | 108% | 145% | 111% | 87% |
| COc1cc2c(Oc3ccc(-c4nc5ccccc5s4)cc3F)ncnc2cc1OCCCN1CCN(C)CC1 | 95% | 85% | 53% | 95% | 207% | 2% | 87% | 103% | 132% | 100% | 79% |
| COc1cc2c(Oc3ccc(-c4nc5ccccc5s4)cc3)ncnc2cc1OCCCN1CCCC1 | 96% | 113% | 68% | 94% | 292% | 46% | 132% | 105% | 154% | 96% | 101% |
